The structures appear in SMILES notation.

The values below come from patent publication US9688620B2, “Methods for treating fibromyalgia syndrome” (SK Biopharmaceuticals Co., Ltd., priority 2009, dated 2017).

For series [1], the system named is littermate wild-type mice. As to the kind of experiment: Sleep parameters (EEG/EMG polygraph) in littermate wild-type mice. It counts as in vivo. Particulars: for wake-promoting effects: resting period (dosed PO at ZT 2); for duration of continuous wakefulness: most wild-type mice. An excerpt:
(§1) The polygraph signal (EEG and EMG) was captured with SleepSign (Kissel Comtech), and the sleep stage was visually scored with 10 sec epoch for wakefulness, non-REM sleep and REM sleep. Scoring criteria are: Wakefulness is characterized by desynchronized low-amplitude, mixed frequency (>4 Hz) EEG and high EMG activity. Rhythmic alpha (8-9 Hz) wave (with high EMG activities) may also appear. Non-REM is characterized by synchronized, high-amplitude, low-frequency (0.25-4 Hz) with reduced EMG activity (compared to wakefulness). EEG activity in REM sleep is similar to that in wakefulness, with desynchronized, mixed frequency low amplitude waves. Rhythmic alpha (8-9 Hz) wave with reduced EMG activities may also appear. […] activity during REM sleep is reduced even further and in many cases, completely absent. Some muscle twitching may be apparent in the EMG trace during REM sleep.
(§2) Three drug doses of the test compound (50, 100 and 150 mg/kg PO) plus vehicle, was orally administered at ZT 2 (2 hours after light on) or ZT 14 (2 hours after light off), and the effects on sleep was monitored for 6 hours after the drug administration (the sleep data was collected for 30 hours after the drug injection, and are available for further analysis). The doses for modafinil were 50 and 200 mg/kg PO (plus vehicle), and modafinil was also administered at ZT 2 and ZT14.
(§3) If the polygraph signals of some mice were not sufficient to score the sleep stage with accuracy (especially bad EMG), data from these animals were excluded, and the minimum of 5 animals (except for the highest dose of the test compound in wild-type mice in dark period, n=4) were included for the data analysis and number of animals were indicated in the figures.
(§4) Effects of test compound and modafinil on the amount of wake, non-REM sleep, REM sleep (cumulative seconds), number of episodes for each sleep stage during 6 hours, mean wake/sleep-bout lengths (seconds) were analyzed in each animal and the mean of each parameter was calculated in each genotype. The effects of compounds on wake and sleep amounts are useful to evaluate the wake promoting potency, and the number of episodes for each sleep stage and the mean wake/sleep bout length are parameters for evaluating the sleep fragmentation. Amphetamine and modafinil, two main wake-promoting compounds currently used for the treatment of EDS associated with various etiologies (narcolepsy, idiopathic hypersomnia and secondary EDS), are known to increase wake time and prolong wake bout length in normal and EDS conditions.
(§5) A comparison of the effects between hypocretin deficient and wild-type mice is very useful in determining if the wake-promotion of the test compound is dependent on the availability of hypocretins, and if there is a possible change in the sensitivity of the receptive mechanisms of test compound in narcoleptic mice due to the hypocretin ligand deficiency.

Series [2] relates to hypocretin cell ablated narcoleptic mice (prepororexin/ataxin-3 transgenic). Briefly: Sleep parameters (EEG/EMG polygraph) in narcoleptic mice. It counts as in vivo. Conditions: for wake-promoting effects (magnitude): active (dark) period; for wakefulness (dose dependence): active period (dosed PO at ZT 14); for wake-promoting effects: resting period (dosed PO at ZT 2); for duration of continuous wakefulness: most narcoleptic mice.
Text: as §1, §2, §3, §4, §5

A further series deals with Male CD-1 mice. As to the kind of experiment: Forced swimming test in mice. It counts as in vivo. Conditions: for mean duration of immobility: mice. As to the method:
(§6) Male CD-1 mice (16-24 g) and male Wistar rats (90-125 g) were utilized in these experiments. The test compound (10, 15 and 30 mg/kg) was dissolved in physiological saline (0.9%) and administered orally PO in a volume of 1 mL/100 g body weight.
(§7) Mice and rats were placed in glass cylinders (1000 ml beakers; height 14 cm, diameter 11.5 cm) and (4000 ml beakers; height 24.5 cm, diameter 18.0 cm) respectively, containing water (25 degrees Celsius) up to a height of 9.0 cm for mice and 19.0 for rats. […] Immobility was defined as lack of movement, such as floating in the water with little or no movement of hind legs. Duration of immobility was timed with a stopwatch and recorded. In some experiments, mice or rats were allowed to swim for 6 or 10 minutes, respectively, one day prior to the forced swimming experiment.
(§8) In the single dose test, mice or rats were given test compound or 0.9% NaCl and placed in glass cylinders 1 hour or 4 hours post-treatment, respectively. In the multiple dose experiments, mice were dosed twice a day for 3 days and given an additional dose on Day 4. In addition, the mice were placed in the glass cylinders containing water at 25 degrees Celsius and allowed to swim for six minutes on Day 3. Statistical evaluation was performed using a computer program based on probit analysis. Statistical significance was determined using Student's t-test at a P value of <0.05.

For the next series, the system named is male Wistar rats. As to the kind of experiment: Forced swimming test in rats. It counts as in vivo. Particulars: 4 hours post-treatment. On the procedure:
as §6, §7, §8

For series [3], the system named is rats with sciatic nerve ligation. Briefly: Thermal hyperalgesia (hindpaw withdrawal latency, plantar tester) in rats with sciatic nerve ligation. It counts as in vivo, Sprague-Dawley rats. Conditions: 30 mg/kg IP; for mean paw withdrawal latency: n = 6. On the procedure:
Young adult male Sprague-Dawley rats (CD(SD)IGS, 150-200 g) were initially anesthetized with isoflurane in O2 by a mask and the surgical procedure was performed according to the method described by Bennett and Xie (1988). Briefly, the right sciatic nerves were loosely tied using ligatures. All experiments were conducted in accordance with the guidelines of the International Association for the Study of Pain. The behavioral tests were conducted at least 14 days postoperatively.
The test compound was dissolved in saline and administered intraperitoneally at 30 mg/kg to animals in a volume of 3 mL/kg body weight.
To test for thermal hyperalgesia, the thermal response was determined by the hindpaw withdrawal latency, using a plantar tester (UGO BASILE, Italy), and a modified method of Hargreaves et al. (1988). Rats were allowed to acclimate within plastic enclosures on a clear glass plate maintained at room temperature. A radiant heat source (intensity 90) was controlled with a timer and focused onto the plantar surface of the rat right hind paw encompassing the glabrous skin. Paw withdrawal stopped both heat source and timer. A maximal cut-off 30 sec was used to prevent tissue damage. Rats were assessed for thermal hyperalgesia predose (0 hr) and at 1, 4 and 8 hours after 30 mg/kg test compound administration.
Data are expressed as mean±standard error of mean (SEM). The values of behavioral signs of neuropathic pain at various postoperative time points were compared with those of the preoperative control period by a repeated-measure One-way Analysis of Variance (followed by Dunnett's post-hoc test). P-values less than 0.05 were considered to be significant.

Setting [4] is: resting period, genotypes not distinguished.

`NC(=O)C[S+]([O-])C(c1ccccc1)c1ccccc1` (stereo not drawn) [modafinil, reference compound]: in series [1] (wild-type mice), the wake-promoting effects result was “modest”. Further, the wake amount result in series [2] (200 mg/kg (high dose), active period, narcoleptic mice) is given as “did not bring the wake amount to that of the wild-type baseline levels”. Further, in series [2] (narcoleptic mice), the “wake-promoting effects (magnitude)” value was “much weaker”, the “wakefulness (dose dependence)” value is recorded as “dose-dependently increase” and the wake-promoting effects entry is “modest”. Besides, the “dose of test compound to which the wake promoting effect of modafinil roughly corresponds” value in series [2] (modafinil 200 mg/kg PO, resting period, genotypes not distinguished) was around 50 mg/kg. For the same compound, the REM sleep entry in series [2] (setting [4]) is listed as “did not strongly reduce REM sleep”.
As a reminder, the ED50 is the dose at which the effect has come halfway, by size or by number of responders. `NC(=O)OC[C@H](N)Cc1ccccc1` [test compound, O-carbamoyl-(D)-phenylalaminol]: the ED50 in the series with Male CD-1 mice (Mus musculus, multiple dosing PO, mice (twice a day for 3 days plus a dose on Day 4), read-out: ED50 (reduction in mean immobility time)) was determined as 5.5 mg/kg. Also, the “mean duration of immobility” value in the series on Male CD-1 mice (multiple dosing 3 mg/kg PO, control 85 sec) amounted to 63 s; in the series with Male CD-1 mice (multiple dosing 5 mg/kg PO, control 136 sec, significant), 73 s; in the series with Male CD-1 mice (multiple dosing 8 mg/kg PO, control 114 sec, significant), 39 s; in the series on Male CD-1 mice (single dose 10 mg/kg PO, control 131 sec), 101 s; in the series on Male CD-1 mice (single dose 15 mg/kg PO, control 154 sec, significant), 80 s; in the series with Male CD-1 mice (single dose 30 mg/kg PO, control 132 sec, significant), 30 s. In addition, the “mean duration of immobility” value with male Wistar rats (10 mg/kg PO, control 74 sec, not statistically significant) was 62 s; in the series with male Wistar rats (15 mg/kg PO, control 65 sec, not statistically significant), 39 s; with male Wistar rats (30 mg/kg PO, control 38 sec, significant), 9 s. In addition, the “duration of continuous wakefulness” value in series [1] (50 mg/kg PO, resting period) was “up to 3 hours”; in series [1] (100 mg/kg PO, resting period), at most 4 h; in series [1] (150 mg/kg PO, resting period), at most 5 h; in series [2] (50 mg/kg PO, resting period), “up to 3 hours”; in series [2] (100 mg/kg PO, resting period), at most 4 h; in series [2] (150 mg/kg PO, resting period) it was at most 5 h. The “Non-REM and REM sleep during the period of continuous wakefulness” value in series [1] (50, 100, 150 mg/kg PO, resting period, wild-type mice) is “completely suppressed”; in series [2] (50, 100, 150 mg/kg PO, resting period, narcoleptic mice) it was “completely suppressed”. Further, the bouts of wakefulness entry in series [1] (50-150 mg/kg PO, wild-type mice) is listed as “significantly increased”; in series [2] (50-150 mg/kg PO, narcoleptic mice), “significantly increased”. The “wake-promoting effects (magnitude)” value in series [1] (active (dark) period, wild-type mice, high baseline wakefulness) is listed as “only small effects”; in series [2] (narcoleptic mice), “much pronounced”. For the same compound, the “wakefulness (dose dependence)” value in series [1] (active period (dosed PO at ZT 14), wild-type mice) is “dose-dependently increased”; in series [2] (narcoleptic mice), “dose-dependently increased”. The wake-promoting effects result in series [1] (wild-type mice) and in series [2] (narcoleptic mice) was “Very potent” throughout. The “mean paw withdrawal latency” value in series [3] (0 hr (predose baseline)) turned out to be 5.17 s; in series [3] (1 hr post-injection, P < 0.01 vs 0 hr), 6.33 s; in series [3] (4 hr post-injection, P < 0.05 vs 0 hr), 6.06 s; in series [3] (8 hr post-injection), 5.63 s. Also, in series [3] (vs pre-injection (0 hr) latency), the “paw withdrawal latency to a thermal stimulus (in words)” value is listed as “significantly increased”. The “% of Antagonism” value is on record as 0.14**(22.3% in series [3] (1 hr vs 0 hr latency), 0.21*(17.2%) in series [3] (4 hr vs 0 hr latency) and 0.16(8.8%) in series [3] (8 hr vs 0 hr latency). In addition, the wake amounts entry in series [2] (100 mg/kg, active period, narcoleptic mice) is on record as “brought up to the levels of wild-type mice”; in series [2] (150 mg/kg, active period, narcoleptic mice) it was “brought up to the levels of wild-type mice”. Besides, the “sleep patterns of narcoleptic mice” value in series [2] (50-150 mg/kg PO) is recorded as “normalize”. The “amounts of non-REM and REM sleep” value in series [2] (active period, narcoleptic mice) is listed as “brought down to the levels of wild-type mice”. In addition, in series [2] (polygraphic assessments, resting period, genotypes not distinguished), the “sleep that occurred after the prolonged wakefulness” value is reported as “normal”. The REM sleep entry in series [2] (setting [4]) is on record as “potently reduced”. The “EEG patterns after administration” value in series [2] (resting period, wild-type and narcoleptic mice not distinguished) is given as “no abnormal EEG patterns”.
